Results from ChEMBL document CHEMBL6083286, “Discovery of ERD-12310A as an Exceptionally Potent and Orally Efficacious PROTAC Degrader of Estrogen Receptor α (ERα)” (J Med Chem, 2024).
The source made the active and inactive calls. The rule behind the calls is not given here.

Assays:
[1] = Metabolic stability rat liver microsome assessed as half life; type: ADME; details: microsomes
[2] = molecular target: T1, Protein cereblon/Estrogen receptor (Homo sapiens, UniProt P03372+Q96SW2); experiment: PROTAC activity at CRBN/ERalpha in human MCF7 cells assessed as reduction in ERalpha protein level measured after 12 hrs by Western blot analysis relative to control; type: cell-based
[3] = Half life in mouse at 3 mg/kg, po or 1 mg/kg, iv measured upto 24 hrs by LC-MS/MS analysis; type: ADME, organism-based; details: in vivo
[4] = Half life in rat at 3 mg/kg, po or 1 mg/kg, iv measured upto 24 hrs by LC-MS/MS analysis; type: ADME, organism-based; details: in vivo
[5] = Cmax in mouse at 3 mg/kg, po or 1 mg/kg, iv measured upto 24 hrs by LC-MS/MS analysis; type: ADME, organism-based; details: in vivo
[6] = AUC (0 to infinity) in rat at 3 mg/kg, po or 1 mg/kg, iv measured upto 24 hrs by LC-MS/MS analysis; type: ADME, organism-based; details: in vivo
[7] = AUC (0 to infinity) in dog at 3 mg/kg, po or 1 mg/kg, iv measured upto 24 hrs by LC-MS/MS analysis; type: ADME, organism-based, Canis lupus familiaris; details: in vivo
[8] = Volume of distribution at steady state in mouse at 3 mg/kg, po or 1 mg/kg, iv measured upto 24 hrs by LC-MS/MS analysis; type: ADME, organism-based; details: in vivo
[9] = Volume of distribution at steady state in rat at 3 mg/kg, po or 1 mg/kg, iv measured upto 24 hrs by LC-MS/MS analysis; type: ADME, organism-based; details: in vivo
[10] = Oral bioavailability in mouse at 3 mg/kg measured upto 24 hrs by LC-MS/MS analysis; type: ADME, organism-based; details: in vivo
[11] = Stability in dog plasma assessed as half life; type: ADME, cell-free, Canis lupus familiaris
[12] = molecular target: T2, Cytochrome P450 1A2 (Homo sapiens, UniProt P05177); experiment: Inhibition of CYP1A2 in human liver microsomes incubated for 5 mins in presence of NADPH by LC-MS/MS analysis; type: ADME, Microsome
T2 sequence (P05177 whole entry): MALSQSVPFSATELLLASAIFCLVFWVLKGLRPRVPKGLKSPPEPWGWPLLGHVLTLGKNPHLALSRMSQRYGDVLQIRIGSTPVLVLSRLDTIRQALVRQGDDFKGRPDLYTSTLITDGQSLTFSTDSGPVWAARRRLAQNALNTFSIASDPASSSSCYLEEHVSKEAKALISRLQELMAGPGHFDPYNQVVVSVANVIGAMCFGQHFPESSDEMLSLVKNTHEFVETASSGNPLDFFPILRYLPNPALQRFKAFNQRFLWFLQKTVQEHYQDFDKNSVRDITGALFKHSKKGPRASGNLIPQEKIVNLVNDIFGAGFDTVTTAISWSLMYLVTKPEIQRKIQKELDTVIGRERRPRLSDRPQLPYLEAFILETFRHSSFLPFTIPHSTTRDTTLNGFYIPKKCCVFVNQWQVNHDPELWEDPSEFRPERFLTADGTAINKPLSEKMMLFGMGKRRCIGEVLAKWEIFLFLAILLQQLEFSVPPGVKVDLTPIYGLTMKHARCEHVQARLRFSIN

[13] = molecular target: Cytochrome P450 2C9 (Homo sapiens, UniProt P11712); experiment: Inhibition of CYP2C9 in human liver microsomes incubated for 5 mins in presence of NADPH by LC-MS/MS analysis; type: ADME, Microsome
[14] = molecular target: Cytochrome P450 2C19 (Homo sapiens, UniProt P33261); experiment: Inhibition of CYP2C19 in human liver microsomes incubated for 5 mins in presence of NADPH by LC-MS/MS analysis; type: ADME, Microsome
[15] = molecular target: Voltage-gated inwardly rectifying potassium channel KCNH2 (Homo sapiens, UniProt Q12809); experiment: Inhibition of hERG in HEK293 cells at 10 uM by whole-cell patch clamp assay relative to control; type: toxicity, cell-based; details: hek293, 10 µM
[16] = Plasma protein binding in human; type: ADME, cell-free
[17] = molecular target: T1, Protein cereblon/Estrogen receptor; experiment: PROTAC activity at CRBN/ERalpha in human MCF7 cells assessed as reduction in ERalpha protein level at 1 nM measured at 4 hrs by Western blot analysis; type: cell-based
[18] = molecular target: T1, Protein cereblon/Estrogen receptor; experiment: PROTAC activity at CRBN/ERalpha in human T47D cells assessed as reduction in ERalpha protein level at 10 nM measured at 4 hrs by Western blot analysis; type: cell-based
[19] = molecular target: T1, Protein cereblon/Estrogen receptor; experiment: PROTAC activity at CRBN/wild type ERalpha in human T47D cells assessed as reduction in ERalpha protein level at 10 to 100 nM measured at 7 hrs by Western blot analysis; type: cell-based; details: dose 10-100 nM
[20] = test system: T47D; experiment: PROTAC activity at CRBN/ ERalpha Y537S mutant in human T47D cells assessed as reduction in ERalpha protein level at 10 to 100 nM measured at 7 hrs by Western blot analysis; type: cell-based; set-up: scale not given: the % may be the effect or the level left; details: dose 10-100 nM
[21] = molecular target: T1, Protein cereblon/Estrogen receptor; experiment: PROTAC activity at CRBN/ERalpha in human MCF7 cells assessed as reduction in ERalpha protein level at 5 nM measured for 4 hrs by Western blot analysis; type: cell-based
[22] = molecular target: T1, Protein cereblon/Estrogen receptor; experiment: PROTAC activity at CRBN/ERalpha in human MCF7 cells assessed as reduction in ERalpha protein level at 5 nM measured for 4 hrs in presence of cereblon ligand C1 by Western blot analysis; type: cell-based
[23] = test system: MCF7; experiment: Antiproliferative activity against human MCF7 cells assessed as cell growth inhibition incubated for 4 days by crystal violet staining based assay; type: functional; details: time 4.0 day
[24] = molecular target: T1, Protein cereblon/Estrogen receptor; experiment: In-vivo PROTAC activity at CRBN/ERalpha in SCID mouse xenografted with human MCF7 cells assessed as reduction in ERalpha level in tumor at 10 mg/kg, po administered daily for 3 days and measured after 6 hrs by Western blot analysis; type: functional, organism-based; set-up: scale not given: the % may be the effect or the level left; details: time 78.0 hrs
[25] = molecular target: T1, Protein cereblon/Estrogen receptor; experiment: In-vivo PROTAC activity at CRBN/ERalpha in SCID mouse xenografted with human MCF7 cells assessed as reduction in ERalpha level in tumor at 30 mg/kg, po administered daily for 3 days and measured after 24 hrs by Western blot analysis; type: functional, organism-based; set-up: scale not given: the % may be the effect or the level left; details: time 96.0 hrs
[26] = Drug concentration in SCID mouse plasma at 30 mg/kg, po administered daily for 3 days and measured after 24 hrs by LC-MS/MS analysis; type: ADME, organism-based
[27] = Drug concentration in SCID mouse tumor at 30 mg/kg, po administered daily for 3 days and measured after 24 hrs by LC-MS/MS analysis; type: ADME, organism-based, Neoplasm; details: read-out: Ct
[28] = test system: Protein cereblon/Estrogen receptor (Homo sapiens), P03372+Q96SW2 [Y537S]; experiment: In vivo PROTAC activity at CRBN/ESR1 Y537S mutant in SCID mouse xenografted with human MCF7 cells assessed as reduction in ESR1 Y537S level in tumor at 10 mg/kg, po measured after 24 hrs by Western blot analysis; type: functional, organism-based; set-up: scale not given: the % may be the effect or the level left
[29] = test system: MCF7; experiment: Antitumor activity against human MCF7 cells xenografted in SCID mouse assessed as tumor growth inhibition at 30 mg/kg, po administered for 5 weeks and measured on day 81; type: functional; details: MCF7, 1944 h, time 81 day, read-out: TGI
[30] = Drug concentration in SCID mouse plasma at 10 mg/kg, po administered once daily for 3 days measured after 24 hrs by LC-MS/MS analysis; type: ADME, organism-based

T1 sequence (P03372 whole entry, looked up): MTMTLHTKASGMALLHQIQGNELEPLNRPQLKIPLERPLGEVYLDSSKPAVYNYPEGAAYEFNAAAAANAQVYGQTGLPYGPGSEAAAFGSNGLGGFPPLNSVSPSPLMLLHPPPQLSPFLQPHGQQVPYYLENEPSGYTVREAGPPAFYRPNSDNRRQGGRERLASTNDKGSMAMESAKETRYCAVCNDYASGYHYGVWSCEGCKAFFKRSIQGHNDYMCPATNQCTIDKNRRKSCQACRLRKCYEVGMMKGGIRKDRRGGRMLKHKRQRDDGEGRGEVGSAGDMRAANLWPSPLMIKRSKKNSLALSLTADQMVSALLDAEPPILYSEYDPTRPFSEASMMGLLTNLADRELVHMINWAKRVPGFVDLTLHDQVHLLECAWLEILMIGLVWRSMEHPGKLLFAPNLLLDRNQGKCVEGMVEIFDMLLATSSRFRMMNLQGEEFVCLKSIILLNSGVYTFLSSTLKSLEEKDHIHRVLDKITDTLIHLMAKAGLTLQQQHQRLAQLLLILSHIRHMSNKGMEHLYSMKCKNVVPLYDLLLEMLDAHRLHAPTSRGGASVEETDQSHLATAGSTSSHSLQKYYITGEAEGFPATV
T1 sequence (Q96SW2 whole entry, looked up): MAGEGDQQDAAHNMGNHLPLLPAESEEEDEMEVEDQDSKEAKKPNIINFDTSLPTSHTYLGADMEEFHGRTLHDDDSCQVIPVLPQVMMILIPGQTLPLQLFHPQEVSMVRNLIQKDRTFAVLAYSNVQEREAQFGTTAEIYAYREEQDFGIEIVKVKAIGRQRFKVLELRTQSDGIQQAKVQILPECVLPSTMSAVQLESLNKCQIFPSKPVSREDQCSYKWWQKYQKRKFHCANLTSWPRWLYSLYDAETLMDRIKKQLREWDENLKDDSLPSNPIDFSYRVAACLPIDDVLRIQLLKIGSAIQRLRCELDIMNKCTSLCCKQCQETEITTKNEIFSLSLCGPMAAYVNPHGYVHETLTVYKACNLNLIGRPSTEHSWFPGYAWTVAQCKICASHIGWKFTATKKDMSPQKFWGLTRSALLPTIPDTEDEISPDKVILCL
Sequence of Cytochrome P450 2C9 (P11712 whole entry): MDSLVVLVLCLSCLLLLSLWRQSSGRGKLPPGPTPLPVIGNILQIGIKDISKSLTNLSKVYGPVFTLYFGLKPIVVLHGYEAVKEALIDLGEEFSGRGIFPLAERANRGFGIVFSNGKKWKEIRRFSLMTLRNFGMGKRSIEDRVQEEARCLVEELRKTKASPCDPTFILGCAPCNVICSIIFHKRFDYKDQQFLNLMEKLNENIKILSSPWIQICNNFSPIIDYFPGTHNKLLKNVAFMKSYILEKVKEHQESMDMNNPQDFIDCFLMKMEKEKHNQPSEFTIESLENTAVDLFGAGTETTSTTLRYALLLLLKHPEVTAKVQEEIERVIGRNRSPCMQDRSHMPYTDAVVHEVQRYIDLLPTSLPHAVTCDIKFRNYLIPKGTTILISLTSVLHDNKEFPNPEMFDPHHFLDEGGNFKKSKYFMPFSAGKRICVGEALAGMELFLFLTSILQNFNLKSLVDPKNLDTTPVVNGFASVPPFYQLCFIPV
Sequence of Cytochrome P450 2C19 (P33261 whole entry): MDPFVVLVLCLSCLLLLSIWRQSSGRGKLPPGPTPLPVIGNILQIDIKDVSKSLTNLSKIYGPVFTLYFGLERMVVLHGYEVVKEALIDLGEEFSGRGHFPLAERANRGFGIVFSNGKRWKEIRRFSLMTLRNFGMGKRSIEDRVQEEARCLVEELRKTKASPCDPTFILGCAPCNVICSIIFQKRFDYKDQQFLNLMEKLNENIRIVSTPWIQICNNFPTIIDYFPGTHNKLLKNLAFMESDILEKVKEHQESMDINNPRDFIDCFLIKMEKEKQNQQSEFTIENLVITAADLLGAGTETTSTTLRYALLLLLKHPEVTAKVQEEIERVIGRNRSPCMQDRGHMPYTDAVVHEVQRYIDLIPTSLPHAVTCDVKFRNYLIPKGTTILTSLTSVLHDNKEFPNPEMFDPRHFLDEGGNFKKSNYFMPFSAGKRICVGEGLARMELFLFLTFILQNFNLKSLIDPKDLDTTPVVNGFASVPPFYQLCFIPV
Sequence of Voltage-gated inwardly rectifying potassium channel KCNH2 (Q12809 whole entry): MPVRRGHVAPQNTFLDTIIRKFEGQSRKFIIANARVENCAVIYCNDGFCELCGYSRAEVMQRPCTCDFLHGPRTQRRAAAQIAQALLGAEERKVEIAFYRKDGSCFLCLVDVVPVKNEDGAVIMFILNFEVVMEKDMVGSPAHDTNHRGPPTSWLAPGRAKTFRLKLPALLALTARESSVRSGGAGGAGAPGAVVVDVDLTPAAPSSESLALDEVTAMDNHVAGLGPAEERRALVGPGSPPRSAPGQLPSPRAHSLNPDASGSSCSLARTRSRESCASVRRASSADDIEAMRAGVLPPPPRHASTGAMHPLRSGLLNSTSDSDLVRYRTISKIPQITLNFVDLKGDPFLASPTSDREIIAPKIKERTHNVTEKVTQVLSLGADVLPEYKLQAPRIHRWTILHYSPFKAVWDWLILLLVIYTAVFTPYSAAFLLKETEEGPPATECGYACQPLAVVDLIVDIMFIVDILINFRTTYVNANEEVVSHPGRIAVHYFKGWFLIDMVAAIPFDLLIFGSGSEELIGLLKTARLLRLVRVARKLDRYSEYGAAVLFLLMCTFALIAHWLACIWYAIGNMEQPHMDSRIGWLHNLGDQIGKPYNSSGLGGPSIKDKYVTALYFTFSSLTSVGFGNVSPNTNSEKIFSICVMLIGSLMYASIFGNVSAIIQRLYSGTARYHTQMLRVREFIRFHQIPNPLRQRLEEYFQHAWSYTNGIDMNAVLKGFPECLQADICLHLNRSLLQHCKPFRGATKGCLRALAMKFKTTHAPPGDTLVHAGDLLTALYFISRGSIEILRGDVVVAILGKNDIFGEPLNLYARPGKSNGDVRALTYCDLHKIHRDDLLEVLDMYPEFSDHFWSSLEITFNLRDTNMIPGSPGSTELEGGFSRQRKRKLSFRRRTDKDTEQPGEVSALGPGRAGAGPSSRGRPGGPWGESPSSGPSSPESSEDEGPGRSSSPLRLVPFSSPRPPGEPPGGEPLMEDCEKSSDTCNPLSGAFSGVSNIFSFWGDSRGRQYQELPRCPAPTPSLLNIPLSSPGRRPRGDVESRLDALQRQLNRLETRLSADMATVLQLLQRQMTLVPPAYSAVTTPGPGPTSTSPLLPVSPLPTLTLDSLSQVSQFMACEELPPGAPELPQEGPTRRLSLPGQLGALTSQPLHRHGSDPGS

Molecule `O=C1CC[C@H](N2Cc3c(ccc4c3OCC43CCN(C[C@@H]4CCC5(CCN(c6ccc([C@@H]7c8ccc(O)cc8CC[C@@H]7c7ccccc7)cc6)CC5)OC4)CC3)C2=O)C(=O)N1` has a t1/2 [1] of over 1 h, an Emax [2] of 103% and a t1/2 [3] of 13.3 h. The t1/2 [4] was 5.6 h, the Cmax [5] was 58.6 ng/mL and the AUC [6] was 583 ng·h/mL. The AUC(0-inf) [7] was 15500 ng·h/mL, the Vdss [8] was 5.8 L/kg and the Vdss [9] was 1.9 L/kg. For the same molecule, the F [10] was 37%, the t1/2 [11] was over 4 h and the IC50 [12] was over 10 µM. The IC50 [13] was over 10 µM, the IC50 [14] was 6 µM and the “inhibition (INH)” value [15] was 43.7%. For the same molecule, the PPB [16] was 98.9%, the Activity [17] was “Active” and the Activity [18] was “Active”. The Activity [19] was “Active”, the Activity [20] was over 80% and the Activity [21] was “Active”. The Activity [22] was “inactive”, the Activity [23] was “Active” and the Activity [24] was 66%. It also gave an Activity [25] of 71%, a concentration at 96 h [26] of 50 ng/mL and a concentration at 96 h [27] of 1090 ng/mL. For the same molecule, the Activity [28] was 71%, the inhibition in vivo at 30 mg/kg [29] was 110% and the concentration at 96 h [30] was 18 ng/mL.
